# Measured values: patent US20250041312A1, “METHODS OF ADMINISTERING A MODULATOR OF HEMOGLOBIN” (Global Blood Therapeutics, Inc., priority 2021, published 2025)
# Like-named read-outs stand apart in the source and are kept apart here.
# Test: SAD study in healthy volunteers: PK in plasma, whole blood, red blood cells
# Type: in vivo, human
# Details: for Cmax / AUC(0-t) / half-life / Kp / blood plasma ratio: human; for Kp: red blood cells and plasma; for Kp / blood plasma ratio: HV, dose range of 50 to 2200 mg; for blood plasma ratio: whole blood and plasma
# Procedure: To evaluate the safety and tolerability of single ascending doses of Compound I, 48 healthy volunteers (42 in the fasted state and 6 in the fed state) aged 18 to 55 years old were administered single ascending doses (50 mg to 2200 mg) of Compound I, while 16 healthy volunteers (14 in the fasted state and 2 in the fed state) aged 18 to 55 years old were administered placebo in a double blind, randomized, sequential manner.
# Whole blood pharmacokinetic (PK) parameters, using actual sample collection times, and hemoglobin occupancy after single ascending dose are shown in Table 5 (containing data from both healthy volunteers and SCD subjects) and Table 6 (containing data from only healthy volunteer subjects).
smiles,measurement,setting,value
"O=Cc1c(O)cccc1OC[C@@H]1COCCN1C(=O)c1cccnc1CCO [Compound I, (S)-2-hydroxy-6-((4-(2-(2-hydroxyethyl)nicotinoyl)morpholin-3-yl)methoxy)benzaldehyde]",B:P ratio (mean AUC0-t blood:mean AUC0-t plasma),HV single 50 mg,220
same,B:P ratio (mean AUC0-t blood:mean AUC0-t plasma),HV single 100 mg,214
same,B:P ratio (mean AUC0-t blood:mean AUC0-t plasma),HV single 200 mg,206
same,B:P ratio (mean AUC0-t blood:mean AUC0-t plasma),HV single 400 mg,185
same,B:P ratio AUC0-inf,"healthy subjects n=6, single 100 mg",216
same,Cmax,"plasma, 100 mg, healthy volunteers n=6, single 100 mg, geometric mean",714 ng/mL
same,AUC(0-t),"plasma, 100 mg, healthy volunteers n=6, single 100 mg, plasma, geometric mean, read-out: AUC0-t",68.7 µg·h/mL
same,half-life,"plasma, 100 mg, healthy volunteers n=6, single 100 mg, plasma, geometric mean, read-out: t½ (converted)",25.6 days
same,Cmax,"plasma, po, 50 mg, HV single oral 50 mg (Cohort 1), geometric mean",400 ng/mL
same,AUC(0-t),"plasma, po, 50 mg, HV single oral 50 mg (Cohort 1), plasma, geometric mean, read-out: AUClast",31.1 µg·h/mL
same,half-life,"plasma, po, 50 mg, HV single oral 50 mg (Cohort 1), plasma, geometric mean, read-out: t1/2 (converted)",28.7 days
same,Cmax,"plasma, po, 100 mg, HV single oral 100 mg (Cohort 2), geometric mean",714 ng/mL
same,AUC(0-t),"plasma, po, 100 mg, HV single oral 100 mg (Cohort 2), plasma, geometric mean, read-out: AUClast",68.7 µg·h/mL
same,half-life,"plasma, po, 100 mg, HV single oral 100 mg (Cohort 2), plasma, geometric mean, read-out: t1/2 (converted)",25.6 days
same,Cmax,"plasma, po, 200 mg, HV single oral 200 mg (Cohort 3), geometric mean",1290 ng/mL
same,AUC(0-t),"plasma, po, 200 mg, HV single oral 200 mg (Cohort 3), plasma, geometric mean, read-out: AUClast",135 µg·h/mL
same,half-life,"plasma, po, 200 mg, HV single oral 200 mg (Cohort 3), plasma, geometric mean, read-out: t1/2 (converted)",30.8 days
same,Cmax,"plasma, po, 400 mg, HV single oral 400 mg (Cohort 5), geometric mean",3190 ng/mL
same,AUC(0-t),"plasma, po, 400 mg, HV single oral 400 mg (Cohort 5), plasma, geometric mean, read-out: AUClast",331 µg·h/mL
same,half-life,"plasma, po, 400 mg, HV single oral 400 mg (Cohort 5), plasma, geometric mean, read-out: t1/2 (converted)",26 days
same,Cmax,"plasma, po, 800 mg, HV single oral 800 mg (Cohort 6), geometric mean",4250 ng/mL
same,AUC(0-t),"plasma, po, 800 mg, HV single oral 800 mg (Cohort 6), plasma, geometric mean, read-out: AUClast",609 µg·h/mL
same,half-life,"plasma, po, 800 mg, HV single oral 800 mg (Cohort 6), plasma, geometric mean, read-out: t1/2 (converted)",20.7 days
same,Cmax,"plasma, po, 1400 mg, HV single oral 1400 mg (Cohort 7), geometric mean",7780 ng/mL
same,AUC(0-t),"plasma, po, 1400 mg, HV single oral 1400 mg (Cohort 7), plasma, geometric mean, read-out: AUClast",1030 µg·h/mL
same,half-life,"plasma, po, 1400 mg, HV single oral 1400 mg (Cohort 7), plasma, geometric mean, read-out: t1/2 (converted)",21.4 days
same,Cmax,"plasma, po, 2200 mg, HV single oral 2200 mg (Cohort 8), geometric mean",9300 ng/mL
same,AUC(0-t),"plasma, po, 2200 mg, HV single oral 2200 mg (Cohort 8), plasma, geometric mean, read-out: AUClast",1360 µg·h/mL
same,half-life,"plasma, po, 2200 mg, HV single oral 2200 mg (Cohort 8), plasma, geometric mean, read-out: t1/2 (converted)",22.1 days
same,Kp,read-out: mean RBC to plasma ratio for AUCinf,420 to 530
same,Kp,read-out: mean RBC to plasma ratio for Cmax,49 to 99
same,AUC(0-t),"red blood cells, po, 50 mg, HV single oral 50 mg (Cohort 1), red blood cells (calculated conc.), geometric mean, read-out: AUClast",16500 µg·h/mL
same,half-life,"red blood cells, po, 50 mg, HV single oral 50 mg (Cohort 1), red blood cells (calculated conc.), geometric mean, read-out: t1/2 (converted)",28.3 days
same,Cmax,"red blood cells, po, 50 mg, HV single oral 50 mg (Cohort 1), red blood cells (conc. calculated from blood, plasma, hematocrit), geometric mean",19300 ng/mL
same,Cmax,"red blood cells, po, 100 mg, HV single oral 100 mg (Cohort 2), red blood cells (calculated conc.), geometric mean",41700 ng/mL
same,AUC(0-t),"red blood cells, po, 100 mg, HV single oral 100 mg (Cohort 2), red blood cells (calculated conc.), geometric mean, read-out: AUClast",34500 µg·h/mL
same,half-life,"red blood cells, po, 100 mg, HV single oral 100 mg (Cohort 2), red blood cells (calculated conc.), geometric mean, read-out: t1/2 (converted)",29 days
same,Cmax,"red blood cells, po, 200 mg, HV single oral 200 mg (Cohort 3), red blood cells (calculated conc.), geometric mean",76900 ng/mL
same,AUC(0-t),"red blood cells, po, 200 mg, HV single oral 200 mg (Cohort 3), red blood cells (calculated conc.), geometric mean, read-out: AUClast",64400 µg·h/mL
same,half-life,"red blood cells, po, 200 mg, HV single oral 200 mg (Cohort 3), red blood cells (calculated conc.), geometric mean, read-out: t1/2 (converted)",28.1 days
same,Cmax,"red blood cells, po, 400 mg, HV single oral 400 mg (Cohort 5), red blood cells (calculated conc.), geometric mean",210000 ng/mL
same,AUC(0-t),"red blood cells, po, 400 mg, HV single oral 400 mg (Cohort 5), red blood cells (calculated conc.), geometric mean, read-out: AUClast",151000 µg·h/mL
same,half-life,"red blood cells, po, 400 mg, HV single oral 400 mg (Cohort 5), red blood cells (calculated conc.), geometric mean, read-out: t1/2 (converted)",25.2 days
same,Cmax,"red blood cells, po, 800 mg, HV single oral 800 mg (Cohort 6), red blood cells (calculated conc.), geometric mean",351000 ng/mL
same,AUC(0-t),"red blood cells, po, 800 mg, HV single oral 800 mg (Cohort 6), red blood cells (calculated conc.), geometric mean, read-out: AUClast",247000 µg·h/mL
same,half-life,"red blood cells, po, 800 mg, HV single oral 800 mg (Cohort 6), red blood cells (calculated conc.), geometric mean, read-out: t1/2 (converted)",26 days
same,Cmax,"red blood cells, po, 1400 mg, HV single oral 1400 mg (Cohort 7), red blood cells (calculated conc.), geometric mean",543000 ng/mL
same,AUC(0-t),"red blood cells, po, 1400 mg, HV single oral 1400 mg (Cohort 7), red blood cells (calculated conc.), geometric mean, read-out: AUClast",455000 µg·h/mL
same,half-life,"red blood cells, po, 1400 mg, HV single oral 1400 mg (Cohort 7), red blood cells (calculated conc.), geometric mean, read-out: t1/2 (converted)",27.4 days
same,Cmax,"red blood cells, po, 2200 mg, HV single oral 2200 mg (Cohort 8), red blood cells (calculated conc.), geometric mean",910000 ng/mL
same,AUC(0-t),"red blood cells, po, 2200 mg, HV single oral 2200 mg (Cohort 8), red blood cells (calculated conc.), geometric mean, read-out: AUClast",626000 µg·h/mL
same,half-life,"red blood cells, po, 2200 mg, HV single oral 2200 mg (Cohort 8), red blood cells (calculated conc.), geometric mean, read-out: t1/2 (converted)",24.6 days
same,blood plasma ratio,read-out: mean blood to plasma ratio for AUCinf,177 to 219
same,blood plasma ratio,read-out: mean blood to plasma ratio for Cmax,20 to 42
same,Cmax,"whole blood, 50 mg, HV single 50 mg, mean",8100 ng/mL
same,AUC(0-t),"whole blood, 50 mg, HV single 50 mg, whole blood, mean, read-out: AUC0-t",6900 µg·h/mL
same,half-life,"whole blood, 50 mg, HV single 50 mg, whole blood, mean, read-out: t1/2 (converted)",28.9 days
same,Cmax,"whole blood, 100 mg, HV single 100 mg, mean",17400 ng/mL
same,AUC(0-t),"whole blood, 100 mg, HV single 100 mg, whole blood, mean, read-out: AUC0-t",14400 µg·h/mL
same,half-life,"whole blood, 100 mg, HV single 100 mg, whole blood, mean, read-out: t1/2 (converted)",29.8 days
same,Cmax,"whole blood, 100 mg, healthy subjects n=6, single 100 mg, blood, geometric mean",17300 ng/mL
same,AUC(0-t),"whole blood, 100 mg, healthy subjects n=6, single 100 mg, blood, geometric mean, read-out: AUC0-t",14300 µg·h/mL
same,half-life,"whole blood, 100 mg, healthy subjects n=6, single 100 mg, blood, geometric mean, read-out: t½ (converted)",29.1 days
same,Cmax,"whole blood, 200 mg, HV single 200 mg, mean",35800 ng/mL
same,AUC(0-t),"whole blood, 200 mg, HV single 200 mg, whole blood, mean, read-out: AUC0-t",29300 µg·h/mL
same,half-life,"whole blood, 200 mg, HV single 200 mg, whole blood, mean, read-out: t1/2 (converted)",28.4 days
same,Cmax,"whole blood, 400 mg, HV single 400 mg, mean",88100 ng/mL
same,AUC(0-t),"whole blood, 400 mg, HV single 400 mg, whole blood, mean, read-out: AUC0-t",61900 µg·h/mL
same,half-life,"whole blood, 400 mg, HV single 400 mg, whole blood, mean, read-out: t1/2 (converted)",25.8 days
same,Cmax,"whole blood, 800 mg, HV single 800 mg, mean",149000 ng/mL
same,AUC(0-t),"whole blood, 800 mg, HV single 800 mg, whole blood, mean, blood collected up to day 42, read-out: AUC0-t",74300 µg·h/mL
same,Cmax,"whole blood, 1400 mg, HV single 1400 mg, mean",231000 ng/mL
same,AUC(0-t),"whole blood, 1400 mg, HV single 1400 mg, whole blood, mean, blood collected up to day 42, read-out: AUC0-t",137000 µg·h/mL
